Test results as given in patent US11697648B2, “Fused pyrimidine pyridinone compounds as JAK inhibitors” (THERAVANCE BIOPHARMA R&D IP, LLC, priority 2019, dated 2023).

Legend:
Caco-2 cell monolayers = assay: Caco-2 permeation assay; type: in vitro ADME; conditions: 5 μM, A-B direction, with Verapamil (25 μM)
In short: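 Compounds tested at 5 μM in duplicate across Caco-2 monolayers, apical-to-basolateral, with 25 μM verapamil to block P-gp, at 37° C., 5% CO2. Apical and basal samples taken at 0 and 120 min, analysed by LC-MS/MS; Papp (cm/sec) calculated as dQ/(dt×Area×concentration).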

Tyk2 = Tyk2 (Homo sapiens (Human), UniProt P29597); assay: Biochemical Tyk2 kinase assay (LanthaScreen)
Sequence of Tyk2 (P29597 whole entry): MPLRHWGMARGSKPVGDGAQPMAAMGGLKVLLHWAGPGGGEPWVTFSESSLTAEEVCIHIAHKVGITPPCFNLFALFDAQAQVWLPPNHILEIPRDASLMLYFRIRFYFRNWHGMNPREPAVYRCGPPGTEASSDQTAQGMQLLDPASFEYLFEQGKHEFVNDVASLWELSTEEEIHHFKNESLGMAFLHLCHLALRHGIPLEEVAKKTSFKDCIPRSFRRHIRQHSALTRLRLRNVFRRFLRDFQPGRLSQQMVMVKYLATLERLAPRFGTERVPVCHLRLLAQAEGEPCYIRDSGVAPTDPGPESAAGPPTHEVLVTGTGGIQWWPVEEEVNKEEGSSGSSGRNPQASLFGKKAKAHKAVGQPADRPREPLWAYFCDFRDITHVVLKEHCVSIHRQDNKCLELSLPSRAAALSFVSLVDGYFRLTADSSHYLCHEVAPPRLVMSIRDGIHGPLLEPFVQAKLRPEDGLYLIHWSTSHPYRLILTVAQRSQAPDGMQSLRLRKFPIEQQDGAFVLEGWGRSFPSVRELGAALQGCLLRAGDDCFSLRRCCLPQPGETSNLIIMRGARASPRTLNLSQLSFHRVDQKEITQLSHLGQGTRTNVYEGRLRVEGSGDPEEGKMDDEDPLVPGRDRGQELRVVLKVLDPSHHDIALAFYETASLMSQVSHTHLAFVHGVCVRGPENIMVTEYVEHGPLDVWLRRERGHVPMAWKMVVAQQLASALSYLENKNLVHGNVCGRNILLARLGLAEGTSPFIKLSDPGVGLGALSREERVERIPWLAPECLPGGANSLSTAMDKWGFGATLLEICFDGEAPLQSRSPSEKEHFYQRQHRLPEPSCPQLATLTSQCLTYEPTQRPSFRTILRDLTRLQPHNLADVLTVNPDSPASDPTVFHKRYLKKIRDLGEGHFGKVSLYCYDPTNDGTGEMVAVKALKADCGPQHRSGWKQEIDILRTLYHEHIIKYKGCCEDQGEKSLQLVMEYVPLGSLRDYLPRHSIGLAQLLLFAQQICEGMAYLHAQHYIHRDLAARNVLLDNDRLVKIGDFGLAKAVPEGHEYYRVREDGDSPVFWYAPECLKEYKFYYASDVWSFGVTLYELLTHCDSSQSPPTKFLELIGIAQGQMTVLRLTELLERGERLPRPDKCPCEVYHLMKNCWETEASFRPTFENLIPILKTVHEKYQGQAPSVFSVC
In short: (§1)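 GST-JAK + GFP-STAT1 peptide, HEPES pH 7.5/MgCl2/EGTA/Brij-35 buffer; cpd preincubation 1 h RT; ATP start, 1 h RT; stop with 10 mM EDTA + 2 nM Tb-anti-pSTAT1; TR-FRET 520/495. 4-parameter IC50 → pKi (Cheng-Prusoff).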

JAK1 = JAK1 (Homo sapiens (Human), UniProt P23458); assay: Biochemical JAK1 kinase assay (LanthaScreen)
Sequence of JAK1 (P23458 whole entry): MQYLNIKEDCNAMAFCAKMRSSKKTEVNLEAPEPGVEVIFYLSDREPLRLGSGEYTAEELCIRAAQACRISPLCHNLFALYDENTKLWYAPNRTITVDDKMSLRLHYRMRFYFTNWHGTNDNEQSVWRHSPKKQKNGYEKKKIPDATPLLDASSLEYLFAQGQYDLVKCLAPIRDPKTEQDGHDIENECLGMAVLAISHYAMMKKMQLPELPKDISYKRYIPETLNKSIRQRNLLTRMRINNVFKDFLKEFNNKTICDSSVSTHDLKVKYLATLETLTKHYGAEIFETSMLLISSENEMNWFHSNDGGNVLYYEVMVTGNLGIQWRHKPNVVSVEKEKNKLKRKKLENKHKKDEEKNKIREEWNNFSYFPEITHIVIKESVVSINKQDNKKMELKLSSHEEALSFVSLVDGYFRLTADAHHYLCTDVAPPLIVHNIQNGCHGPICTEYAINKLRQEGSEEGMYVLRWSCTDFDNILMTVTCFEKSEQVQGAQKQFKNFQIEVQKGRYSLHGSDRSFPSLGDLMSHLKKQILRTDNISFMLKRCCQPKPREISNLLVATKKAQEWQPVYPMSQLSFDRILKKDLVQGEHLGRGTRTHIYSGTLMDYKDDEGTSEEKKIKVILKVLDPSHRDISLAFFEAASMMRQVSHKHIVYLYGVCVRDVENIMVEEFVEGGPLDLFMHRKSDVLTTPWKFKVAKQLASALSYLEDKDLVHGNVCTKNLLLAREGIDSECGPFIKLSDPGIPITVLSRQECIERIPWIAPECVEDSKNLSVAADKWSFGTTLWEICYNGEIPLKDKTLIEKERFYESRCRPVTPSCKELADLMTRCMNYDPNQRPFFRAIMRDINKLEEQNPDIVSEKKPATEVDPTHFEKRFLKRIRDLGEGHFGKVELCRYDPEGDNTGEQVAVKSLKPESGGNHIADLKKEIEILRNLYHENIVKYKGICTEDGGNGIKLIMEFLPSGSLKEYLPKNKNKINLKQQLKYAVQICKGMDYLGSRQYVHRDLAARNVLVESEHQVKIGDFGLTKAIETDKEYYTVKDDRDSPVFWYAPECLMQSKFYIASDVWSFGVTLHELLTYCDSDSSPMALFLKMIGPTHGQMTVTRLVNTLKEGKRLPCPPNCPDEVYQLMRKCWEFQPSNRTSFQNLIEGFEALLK
In short: as §1

JAK3 = JAK3 (Homo sapiens (Human), UniProt P52333); assay: Biochemical JAK3 kinase assay (LanthaScreen); conditions: for JAK3 (pKi)-JAK1 (pKi): selectivity JAK3 over JAK1, difference of pKi
Sequence of JAK3 (P52333 whole entry): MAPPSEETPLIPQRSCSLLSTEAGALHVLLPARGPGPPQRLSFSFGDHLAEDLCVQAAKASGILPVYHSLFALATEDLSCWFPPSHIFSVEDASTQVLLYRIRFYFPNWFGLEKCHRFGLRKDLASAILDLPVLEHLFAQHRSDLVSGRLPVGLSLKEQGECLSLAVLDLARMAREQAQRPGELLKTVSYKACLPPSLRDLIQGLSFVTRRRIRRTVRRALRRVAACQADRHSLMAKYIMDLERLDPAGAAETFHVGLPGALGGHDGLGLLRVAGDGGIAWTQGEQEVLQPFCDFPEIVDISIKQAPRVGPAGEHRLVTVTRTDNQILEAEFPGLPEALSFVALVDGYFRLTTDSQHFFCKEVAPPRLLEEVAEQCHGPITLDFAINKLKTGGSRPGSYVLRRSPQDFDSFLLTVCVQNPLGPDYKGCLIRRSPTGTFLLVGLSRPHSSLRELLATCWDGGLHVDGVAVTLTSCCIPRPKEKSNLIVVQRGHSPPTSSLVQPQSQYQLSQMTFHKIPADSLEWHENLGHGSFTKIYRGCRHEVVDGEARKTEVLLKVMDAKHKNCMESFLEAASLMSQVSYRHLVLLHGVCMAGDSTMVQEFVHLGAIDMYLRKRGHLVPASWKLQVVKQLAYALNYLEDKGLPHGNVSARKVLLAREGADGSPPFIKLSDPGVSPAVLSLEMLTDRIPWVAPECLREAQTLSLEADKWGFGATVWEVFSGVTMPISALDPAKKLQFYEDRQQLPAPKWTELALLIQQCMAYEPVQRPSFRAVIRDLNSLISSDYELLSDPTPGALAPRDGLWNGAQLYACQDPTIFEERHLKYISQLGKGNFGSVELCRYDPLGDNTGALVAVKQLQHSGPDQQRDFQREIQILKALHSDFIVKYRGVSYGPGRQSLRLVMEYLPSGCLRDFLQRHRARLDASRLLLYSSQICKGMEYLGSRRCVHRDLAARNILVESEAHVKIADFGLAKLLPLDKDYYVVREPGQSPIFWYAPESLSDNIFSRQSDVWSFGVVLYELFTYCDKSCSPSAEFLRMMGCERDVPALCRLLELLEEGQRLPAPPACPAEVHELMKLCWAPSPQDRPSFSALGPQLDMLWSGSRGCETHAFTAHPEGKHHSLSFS
In short: as §1

[1] = test system: IL-2 stimulated STAT5 phosphorylation in Tall-1 human T cell line (JAK3); assay: Cellular JAK3 potency assay: inhibition of IL-2 stimulated pSTAT5 in Tall-1 T cells; type: cell-based; conditions: IL-2 stimulated pSTAT5, Tall-1 T cells
In short: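 Tall-1 cells, 45,000 per well, preincubated 1 hour with compound at 37 °C, then stimulated 30 minutes with IL-2 at 300 ng/ml final. pSTAT5 (Tyr694/699) in lysates quantified by AlphaLISA SureFire Ultra. pIC50 derived from inhibition curves, given as mean with SD.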

JAK2 = JAK2 (Homo sapiens (Human), UniProt O60674); assay: Biochemical JAK2 kinase assay (LanthaScreen)
Sequence of JAK2 (O60674 whole entry): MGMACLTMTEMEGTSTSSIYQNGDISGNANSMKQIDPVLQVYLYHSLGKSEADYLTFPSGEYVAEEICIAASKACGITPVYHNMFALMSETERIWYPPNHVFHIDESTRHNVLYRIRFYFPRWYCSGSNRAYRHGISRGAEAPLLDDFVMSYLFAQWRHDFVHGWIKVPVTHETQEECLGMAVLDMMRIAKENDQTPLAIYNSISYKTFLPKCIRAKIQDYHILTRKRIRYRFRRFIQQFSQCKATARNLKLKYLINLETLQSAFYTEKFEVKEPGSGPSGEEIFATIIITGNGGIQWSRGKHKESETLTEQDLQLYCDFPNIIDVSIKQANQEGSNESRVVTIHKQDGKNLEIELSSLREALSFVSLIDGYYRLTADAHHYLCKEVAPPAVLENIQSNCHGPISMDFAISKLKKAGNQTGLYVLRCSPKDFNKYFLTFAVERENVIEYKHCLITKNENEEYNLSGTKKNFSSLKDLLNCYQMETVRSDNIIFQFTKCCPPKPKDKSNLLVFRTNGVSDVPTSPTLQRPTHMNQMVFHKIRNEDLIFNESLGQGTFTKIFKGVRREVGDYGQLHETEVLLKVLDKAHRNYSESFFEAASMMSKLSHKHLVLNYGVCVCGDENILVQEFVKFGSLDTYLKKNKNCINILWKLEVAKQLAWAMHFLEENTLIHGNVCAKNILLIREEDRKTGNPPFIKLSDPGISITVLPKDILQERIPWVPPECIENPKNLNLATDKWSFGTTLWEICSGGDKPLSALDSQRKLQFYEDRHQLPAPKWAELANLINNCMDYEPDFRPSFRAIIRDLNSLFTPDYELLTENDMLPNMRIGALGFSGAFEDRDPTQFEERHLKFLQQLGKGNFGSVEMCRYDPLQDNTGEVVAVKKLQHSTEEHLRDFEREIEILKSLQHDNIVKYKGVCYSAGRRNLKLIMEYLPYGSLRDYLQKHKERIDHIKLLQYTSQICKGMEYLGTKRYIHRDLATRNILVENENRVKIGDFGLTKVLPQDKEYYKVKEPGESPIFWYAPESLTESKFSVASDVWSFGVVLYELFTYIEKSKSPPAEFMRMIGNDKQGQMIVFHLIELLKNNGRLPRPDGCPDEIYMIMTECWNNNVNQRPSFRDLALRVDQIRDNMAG
In short: as §1

| SMILES | Caco Kp (Caco-2 cell monolayers) | Tyk 2 (pKi) (Tyk2) | JAK 1 (pKi) (JAK1) | JAK 3 (pKi) (JAK3) | JAK3 (pKi)-JAK1 (pKi) (JAK3) | Tall-1 (pIC50) [1] | JAK 2 (pKi) (JAK2) |
| --- | --- | --- | --- | --- | --- | --- | --- |
| C=CC(=O)N1CCN(CCn2c(=O)ccc3cnc(Nc4ccc(N5CCN(C(C)C)CC5)cc4)nc32)CC1 [Example 205] | B (B represents a value between 5×10^−6 and 10×10^−6 cm/sec) | E (E represents a pKi value of 7 or below (Ki of 100 nM or above)) | E (E represents a pKi value of 7 or below (Ki of 100 nM or above)) | B (B represents pKi value between 9 and 10 (Ki between 1 nM and 0.1 nM)) | A (A represents a value of 3 or above) | A (A represents a pIC50 value≥7.5 (IC50≤32 nM)) | E (E represents a pKi value of 7 or below (Ki of 100 nM or above)) |
| C=CC(=O)N1CC(CCn2c(=O)ccc3cnc(Nc4ccc(N5CCN(C(=S)N(C)C)CC5)cc4)nc32)C1 [Example 95] | A (A represents a value below 5×10^−6 cm/sec) | E (E represents a pKi value of 7 or below (Ki of 100 nM or above)) | E (E represents a pKi value of 7 or below (Ki of 100 nM or above)) | A (A represents a pKi value≥10 (Ki≤0.1 nM)) | A (A represents a value of 3 or above) | A (A represents a pIC50 value≥7.5 (IC50≤32 nM)) | E (E represents a pKi value of 7 or below (Ki of 100 nM or above)) |
| C=CC(=O)N1CCN(CCn2c(=O)ccc3cnc(Nc4ccc(N5CCN(C(=O)CCSC)CC5)cc4)nc32)[C@@H](CC)C1 [Example 192] | C (C represents a value between 10×10^−6 and 30×10^−6 cm/sec) | E (E represents a pKi value of 7 or below (Ki of 100 nM or above)) | E (E represents a pKi value of 7 or below (Ki of 100 nM or above)) | B (B represents pKi value between 9 and 10 (Ki between 1 nM and 0.1 nM)) | A (A represents a value of 3 or above) | B (B represents a pC50 value between 6.7 (included) and 7.5 (IC50 between 200 nM and 32 nM)) | E (E represents a pKi value of 7 or below (Ki of 100 nM or above)) |
| C=CC(=O)N1CC(CCn2c(=O)ccc3cnc(Nc4ccc(N5CCN(C(C)=O)C(C)(C)C5)cc4)nc32)C1 [Example 179] | C (C represents a value between 10×10^−6 and 30×10^−6 cm/sec) | E (E represents a pKi value of 7 or below (Ki of 100 nM or above)) | E (E represents a pKi value of 7 or below (Ki of 100 nM or above)) | A (A represents a pKi value≥10 (Ki≤0.1 nM)) | A (A represents a value of 3 or above) | B (B represents a pC50 value between 6.7 (included) and 7.5 (IC50 between 200 nM and 32 nM)) | E (E represents a pKi value of 7 or below (Ki of 100 nM or above)) |
| C=CC(=O)N1CC(CCn2c(=O)ccc3cnc(Nc4ccc(N5CCN(C(=O)OCCOC)CC5)cc4)nc32)C1 [Example 99] | A (A represents a value below 5×10^−6 cm/sec) | E (E represents a pKi value of 7 or below (Ki of 100 nM or above)) | E (E represents a pKi value of 7 or below (Ki of 100 nM or above)) | A (A represents a pKi value≥10 (Ki≤0.1 nM)) | A (A represents a value of 3 or above) | B (B represents a pC50 value between 6.7 (included) and 7.5 (IC50 between 200 nM and 32 nM)) | E (E represents a pKi value of 7 or below (Ki of 100 nM or above)) |
| C=CC(=O)N1CC(CCn2c(=O)ccc3cnc(Nc4ccc5c(c4)oc(=O)n5C)nc32)C1 [Example 60] | B (B represents a value between 5×10^−6 and 10×10^−6 cm/sec) | E (E represents a pKi value of 7 or below (Ki of 100 nM or above)) | E (E represents a pKi value of 7 or below (Ki of 100 nM or above)) | B (B represents pKi value between 9 and 10 (Ki between 1 nM and 0.1 nM)) | A (A represents a value of 3 or above) | B (B represents a pC50 value between 6.7 (included) and 7.5 (IC50 between 200 nM and 32 nM)) | E (E represents a pKi value of 7 or below (Ki of 100 nM or above)) |
| C=CC(=O)N1CCN(CCn2c(=O)ccc3cnc(Nc4ccc(N5CCN(C(C)=O)CC5)cc4)nc32)[C@@H](CC)C1 [Example 185] | B (B represents a value between 5×10^−6 and 10×10^−6 cm/sec) | E (E represents a pKi value of 7 or below (Ki of 100 nM or above)) | E (E represents a pKi value of 7 or below (Ki of 100 nM or above)) | A (A represents a pKi value≥10 (Ki≤0.1 nM)) | A (A represents a value of 3 or above) | B (B represents a pC50 value between 6.7 (included) and 7.5 (IC50 between 200 nM and 32 nM)) | E (E represents a pKi value of 7 or below (Ki of 100 nM or above)) |
